In the CheMixHub viscosity set:

Experiment: xn = mol fraction of the nth substance listed

CCCCOC(C)=O + CCO
viscosity [mPa·s], 101 kPa
Settings | x1 = 0.0995 | x1 = 0.1987 | x1 = 0.2996 | x1 = 0.4023 | x1 = 0.4982 | x1 = 0.5987 | x1 = 0.693 | x1 = 0.7968 | x1 = 0.9004
298.15 K | 0.937 | 0.835 | 0.765 | 0.71 | 0.668 | 0.647 | 0.639 | 0.641 | 0.648
303.15 K | 0.871 | – | 0.712 | 0.663 | – | 0.612 | 0.61 | 0.616 | 0.621
308.15 K | 0.797 | 0.719 | 0.657 | 0.621 | 0.591 | 0.582 | 0.582 | 0.582 | 0.587
313.15 K | 0.734 | 0.671 | 0.621 | 0.591 | 0.563 | 0.558 | 0.555 | 0.562 | –

CCCN + CCO
Settings | viscosity [mPa·s]
298.15 K, 100 kPa, x2 = 0.0515 | 0.3851
298.15 K, 100 kPa, x2 = 0.098 | 0.4053
298.15 K, 100 kPa, x2 = 0.2026 | 0.4571
298.15 K, 100 kPa, x2 = 0.2763 | 0.4993
298.15 K, 100 kPa, x2 = 0.3874 | 0.5717
298.15 K, 100 kPa, x2 = 0.4986 | 0.6539
298.15 K, 100 kPa, x2 = 0.6013 | 0.7371
298.15 K, 100 kPa, x2 = 0.7485 | 0.865
298.15 K, 100 kPa, x2 = 0.7991 | 0.9101
298.15 K, 100 kPa, x2 = 0.8981 | 0.9984
298.15 K, 100 kPa, x2 = 0.961 | 1.052
303.15 K, 101.33 kPa, x1 = 0.1084 | 0.9336
303.15 K, 101.33 kPa, x1 = 0.2091 | 0.8629
303.15 K, 101.33 kPa, x1 = 0.3178 | 0.7773
303.15 K, 101.33 kPa, x1 = 0.4096 | 0.7051
303.15 K, 101.33 kPa, x1 = 0.5111 | 0.6253
303.15 K, 101.33 kPa, x1 = 0.6177 | 0.5566
303.15 K, 101.33 kPa, x1 = 0.7059 | 0.5029
303.15 K, 101.33 kPa, x1 = 0.8061 | 0.4453
303.15 K, 101.33 kPa, x1 = 0.901 | 0.3982
313.15 K, 101.33 kPa, x1 = 0.1084 | 0.7854
313.15 K, 101.33 kPa, x1 = 0.2091 | 0.7216
313.15 K, 101.33 kPa, x1 = 0.3178 | 0.6541
313.15 K, 101.33 kPa, x1 = 0.4096 | 0.5979
313.15 K, 101.33 kPa, x1 = 0.5111 | 0.5352
313.15 K, 101.33 kPa, x1 = 0.6177 | 0.475
313.15 K, 101.33 kPa, x1 = 0.7059 | 0.4325
313.15 K, 101.33 kPa, x1 = 0.8061 | 0.3864
313.15 K, 101.33 kPa, x1 = 0.901 | 0.3474

Oc1ccccc1Cl + CCO
Settings | viscosity [mPa·s]
298.15 K, 101 kPa, x1 = 0.5 | 1.452
